Data from patent US11708348B2, “Protease inhibitors for treatment of coronavirus infections” (The Scripps Research Institute, priority 2021, dated 2023).

The compounds below were run on SARS-CoV-2 strain USA-WA1/2020 (assay: microbe, parasite or virus in culture). Details: Severe acute respiratory syndrome coronavirus 2, HeLa-ACE2, 24 h, HeLa-ACE2 cells, SARS-CoV-2 infection, 24 h; bound printed in cell; read-out: EC50, uM (Hela).
Assay type: cell-based
In the case of `O=C(Nc1ccccc1F)C(=O)NC1(C(=O)N[C@@H](C[C@@H]2CCNC2=O)C(=O)COC(F)(F)F)CCOCC1` [Compound 257, N1-(2-fluorophenyl)-N2-(4-(((S)-3-oxo-1-((S)-2-oxopyrrolidin-3-yl)-4-(trifluoromethoxy)butan-2-yl)carbamoyl)-tetrahydro-2H-pyran-4-yl)oxalamide], the EC50 is reported as > 1 µM.

Same assay, conditions: Severe acute respiratory syndrome coronavirus 2, HeLa-ACE2, 24 h, HeLa-ACE2 cells, SARS-CoV-2 infection, 24 h; cells given as a bound; read-out: EC50, uM (Hela)
`COc1cccc2[nH]c(C(=O)N[C@@H](CC(C)C)C(=O)N[C@@H](C[C@@H]3CCNC3=O)C(=O)COC(C(F)F)C(F)F)cc12` [Compound 178, 4-methoxy-N-((S)-4-methyl-1-oxo-1-(((S)-3-oxo-1-((S)-2-oxopyrrolidin-3-yl)-4-((1,1,3,3-tetrafluoropropan-2-yl)oxy)butan-2-yl)amino)pentan-2-yl)-1H-indole-2-carboxamide] was tested, and the EC50 was > 1 µM.

Same assay, conditions: Severe acute respiratory syndrome coronavirus 2, HeLa-ACE2, 24 h, HeLa-ACE2 cells, SARS-CoV-2 infection, 24 h; class symbols; read-out: EC50, uM (Hela)
Compound `CC(C)C[C@H](NC(=O)C(=O)Nc1ccccc1F)C(=O)N[C@@H](C[C@@H]1CCNC1=O)C(=O)COc1c(F)ccc(F)c1F` [Compound 132, N1-(2-fluorophenyl)-N2-((S)-4-methyl-1-oxo-1-(((S)-3-oxo-1-((S)-2-oxopyrrolidin-3-yl)-4-(2,3,6-trifluorophenoxy)butan-2-yl)amino)pentan-2-yl)oxalamide] has an EC50 of 0.05 to 0.2 µM. With `CC(C)C[C@H](NC(=O)C1OCCC1(F)F)C(=O)N[C@@H](C[C@@H]1CCNC1=O)C(=O)COC(F)(F)F` (stereo partly drawn) [Compound 324, 3,3-difluoro-N-((S)-4-methyl-1-oxo-1-(((S)-3-oxo-1-((S)-2-oxopyrrolidin-3-yl)-4-(trifluoromethoxy)butan-2-yl)amino)pentan-2-yl)tetrahydrofuran-2-carboxamide] the EC50 was 0.05 to 0.2 µM. With `CC(C)CC[C@H](NC(=O)c1cc2cc(F)ccc2[nH]1)C(=O)N[C@@H](C[C@@H]1CCNC1=O)C(=O)COc1c(F)c(F)cc(F)c1F` [Compound 11, 5-fluoro-N-((S)-5-methyl-1-oxo-1-(((S)-3-oxo-1-((S)-2-oxopyrrolidin-3-yl)-4-(2,3,5,6-tetrafluorophenoxy)butan-2-yl)amino)hexan-2-yl)-1H-indole-2-carboxamide] the EC50 was 0.2 to 0.5 µM. Work on `O=C(N[C@@H](CCc1ccccc1)C(=O)N[C@@H](C[C@@H]1CCNC1=O)C(=O)COc1c(F)c(F)cc(F)c1F)c1cc2cc(F)ccc2[nH]1` [Compound 12, 5-fluoro-N-((S)-1-oxo-1-(((S)-3-oxo-1-((S)-2-oxopyrrolidin-3-yl)-4-(2,3,5,6-tetrafluorophenoxy)butan-2-yl)amino)-4-phenylbutan-2-yl)-1H-indole-2-carboxamide] yielded an EC50 of 0.5 to 1 µM. In the case of `O=C(NC1CC(F)(F)C1)C(=O)N[C@@H](Cc1ccccc1)C(=O)N[C@@H](C[C@@H]1CCNC1=O)C(=O)COC(F)(F)F` [Compound 182, N1-(3,3-difluorocyclobutyl)-N2-((S)-1-oxo-1-(((S)-3-oxo-1-((S)-2-oxopyrrolidin-3-yl)-4-(trifluoromethoxy)butan-2-yl)amino)-3-phenylpropan-2-yl)oxalamide], the EC50 is reported as < 0.05 µM. `CC(C)C[C@H](NC(=O)C(=O)NCc1ccccc1)C(=O)N[C@@H](C[C@@H]1CCNC1=O)C(=O)COc1c(F)c(F)cc(F)c1F` [Compound 42, N1-benzyl-N2-((S)-4-methyl-1-oxo-1-(((S)-3-oxo-1-((S)-2-oxopyrrolidin-3-yl)-4-(2,3,5,6-tetrafluoro-phenoxy)butan-2-yl)amino)pentan-2-yl)oxalamide] gave an EC50 of 0.05 to 0.2 µM. Compound `CC(C)C[C@H](NC(=O)C(=O)NC1CCCC(F)(F)C1)C(=O)N[C@@H](C[C@@H]1CCNC1=O)C(=O)COc1c(F)c(F)cc(F)c1F` (stereo partly drawn) [Compound 94, Nl-(3,3-difluorocyclohexyl)-N2-((S)-4-methyl-1-oxo-1-(((S)-3-oxo-1-((S)-2-oxopyrrolidin-3-yl)-4-(2,3,5,6-tetrafluorophenoxy)butan-2-yl)amino)pentan-2-yl)oxalamide] has an EC50 of 0.05 to 0.2 µM. Compound `CC[C@@H](O)C(=O)N[C@@H](CC(C)C)C(=O)N[C@@H](C[C@@H]1CCNC1=O)C(=O)COC(F)(F)F` [Compound 369, (S)-2-((R)-2-hydroxybutanamido)-4-methyl-N-((S)-3-oxo-1-((S)-2-oxopyrrolidin-3-yl)-4-(trifluoromethoxy)butan-2-yl)pentanamide] has an EC50 of 0.05 to 0.2 µM. In the case of `O=C(Nc1ccccc1F)C(=O)N[C@@H](Cc1cccc(F)c1)C(=O)N[C@@H](C[C@@H]1CCNC1=O)C(=O)COC(F)(F)F` [Compound 243, N1-(2-fluorophenyl)-N2-((S)-3-(3-fluorophenyl)-1-oxo-1-(((S)-3-oxo-1-((S)-2-oxopyrrolidin-3-yl)-4-(trifluoromethoxy)butan-2-yl)amino)propan-2-yl)oxalamide], the EC50 is reported as < 0.05 µM. `CC(C)C[C@H](NC(=O)C(=O)Nc1ccccc1)C(=O)N[C@@H](C[C@@H]1CCNC1=O)C(=O)COC(F)(F)F` [Compound 122, N1-((S)-4-methyl-1-oxo-1-(((S)-3-oxo-1-((S)-2-oxopyrrolidin-3-yl)-4-(trifluoromethoxy)butan-2-yl)amino)pentan-2-yl)-N2-phenyloxalamide] was tested, and the EC50 was < 0.05 µM. In the case of `CC(C)(C)NC(=O)C(=O)NC(CC1CCOCC1)C(=O)N[C@@H](C[C@@H]1CCNC1=O)C(=O)COC(F)(F)F` (stereo partly drawn) [Compound 181, N1-(tert-butyl)-N2-(l-oxo-1-(((S)-3-oxo-l-((S)-2-oxopyrrolidin-3-yl)-4-(trifluoromethoxy)butan-2-yl)amino)-3-(tetrahydro-2H-pyran-4-yl)propan-2-yl)oxalamide], the EC50 is reported as 0.2 to 0.5 µM.

Same assay, conditions: Severe acute respiratory syndrome coronavirus 2, HeLa-ACE2, 24 h, HeLa-ACE2 cells, SARS-CoV-2 infection, 24 h; read-out: EC50, uM (Hela)
`O=C1NCC[C@H]1C[C@H](NC(=O)[C@@H]1CC2(CC2)CN1C(=O)c1ccc(F)cc1F)C(=O)COC(F)(F)F` [Compound 710, (S)-5-(2,4-difluorobenzoyl)-N-((S)-3-oxo-l-((S)-2-oxopyrrolidin-3-yl)-4-(trifluoromethoxy)butan-2-yl)-5-azaspiro[2.4]heptane-6-carboxamide] was tested, and the EC50 was 0.2 to 0.5 µM. `CC1(C)[C@@H]2[C@@H](C(=O)N[C@@H](C[C@@H]3CCNC3=O)C(=O)COC(F)(F)F)N(C(=O)C(=O)NC34CC(F)(C3)C4)C[C@@H]21` [Compound 486, (1R,2S,5S)-3-(2-((3-fluorobicyclo[1.1.1]-pentan-1-yl)amino)-2-oxoacetyl)-6,6-dimethyl-N-((S)-3-oxo-1-((S)-2-oxopyrrolidin-3-yl)-4-(trifluoromethoxy)butan-2-yl)-3-azabicyclo[3.1.0]-hexane-2-carboxamide] showed an EC50 of 0.05 to 0.2 µM. `CC(C)C[C@H](O)C(=O)N[C@@H](C[C@@H]1CCNC1=O)C(=O)COC(F)(F)F` [Compound 719, (S)-2-hydroxy-4-methyl-N-((S)-3-oxo-1-((S)-2-oxopyrrolidin-3-yl)-4-(trifluoromethoxy)butan-2-yl)pentanamide] was tested, and the EC50 was 0.5 to 1 µM. In the case of `CC1(CC(NC(=O)C(=O)NC2CC2)C(=O)N[C@@H](C[C@@H]2CCNC2=O)C(=O)COC(F)(F)F)CC1` (stereo partly drawn) [Compound 578, N1-cyclopropyl-N2-(3-(1-methylcyclopropyl)-1-oxo-1-(((S)-3-oxo-1-((S)-2-oxopyrrolidin-3-yl)-4-(trifluoromethoxy)butan-2-yl)amino)propan-2-yl)oxalamide], the EC50 is reported as < 0.05 µM. `CC1(C)[C@@H]2[C@@H](C(=O)N[C@H](C[C@@H]3CCNC3=O)C(=O)COC(F)(F)F)N(C(=O)c3cc(C(F)(F)F)no3)C[C@@H]21` [Compound 492, (1R,2S,5S)-6,6-dimethyl-N-((R)-3-oxo-1-((S)-2-oxopyrrolidin-3-yl)-4-(trifluoromethoxy)butan-2-yl)-3-(3-(trifluoromethyl)-isoxazole-5-carbonyl)-3-azabicyclo[3.1.0]-hexane-2-carboxamide] gave an EC50 of 0.05 to 0.2 µM. In the case of `CC(C)(C)NC(=O)C(=O)N1CC2(CCOCC2)CC1C(=O)N[C@@H](C[C@@H]1CCNC1=O)C(=O)COC(F)(F)F` (stereo partly drawn) [Compound 522, 2-(2-(tert-butylamino) -2-oxoacetyl)-N-((S)-3-oxo-1-((S)-2-oxopyrrolidin-3-yl)-4-(trifluoromethoxy)butan-2-yl)-8-oxa-2-azaspiro[4.5]decane-3-carboxamide], the EC50 is reported as 0.5 to 1 µM. `CC1(C)[C@@H]2[C@@H](C(=O)N[C@@H](C[C@@H]3CCNC3=O)C(=O)COC(F)(F)F)N(C(=O)c3cc(C(F)(F)F)no3)C[C@@H]21` [Compound 488, (1R,2S,5S)-6,6-dimethyl-N-((S)-3-oxo-1-((S)-2-oxo-pyrrolidin-3-yl)-4-(trifluoromethoxy)butan-2-yl)-3-(3-(trifluoromethyl)-isoxazole-5-carbonyl)-3-azabicyclo[3.1.0]-hexane-2-carboxamide] was tested, and the EC50 was 0.05 to 0.2 µM. Work on `O=C1NCC[C@H]1C[C@H](NC(=O)[C@@H]1CC2(CC2)CN1C(=O)[C@@H]1CCCO1)C(=O)COC(F)(F)F` [Compound 679, (S)-N-((S)-3-oxo-1-((S)-2-oxopyrrolidin-3-yl)-4-(trifluoromethoxy)butan-2-yl)-5-((S)-tetrahydrofuran-2-carbonyl)-5-azaspiro[2.4]heptane-6-carboxamide] yielded an EC50 of 0.2 to 0.5 µM. In the case of `CC[C@@H](N)C(=O)N1C[C@H]2[C@@H]([C@H]1C(=O)N[C@@H](C[C@@H]1CCNC1=O)C(=O)COC(F)(F)F)C2(C)C` [Compound 439, (1R,2S,5S)-3-((R)-2-aminobutanoyl)-6,6-dimethyl-N-((S)-3-oxo-1-((S)-2-oxopyrrolidin-3-yl)-4-(trifluoromethoxy)butan-2-yl)-3-azabicyclo[3.1.0]-hexane-2-carboxamide], the EC50 is reported as 0.2 to 0.5 µM. For `O=C1NCC[C@H]1C[C@H](NC(=O)[C@@H]1[C@H]2CCC[C@H]2CN1C(=O)c1cc(C(F)(F)F)on1)C(=O)COC(F)(F)F` [Compound 483, (1S,3aR,6aS)-N-((S)-3-oxo-1-((S)-2-oxopyrrolidin-3-yl)-4-(trifluoromethoxy)butan-2-yl)-2-(5-(trifluoromethyl)-isoxazole-3-carbonyl)octahydro-cyclopenta[c]pyrrole-l-carboxamide], the EC50 was 0.05 to 0.2 µM.
